# Data published in US9827326B2, “Polymer-sunitinib conjugates” (Nektar Therapeutics, priority 2010, dated 2017).
# Where two headings read alike, the source gives them in different places.
# Test: In vitro release of conjugates in phosphate buffer (Method E)
# Type: physicochemical
# Experimental: In vitro release for conjugates in buffer: In separate containers Compound 2a (˜0.1-0.5 mg/mL), Compound 3a (˜0.5-5 mg/mL) and Compound 4a (˜0.2-1 mg/mL) were dissolved in 100 mM phosphate buffer pH 7.5 (or other pH values as indicated). The conjugates were filtered through a 0.2 micron filter into a HPLC vial. The HPLC sample vials were incubated at 37° C. and injected at various intervals on a HPLC system with C18 silica column applying an acetonitrile gradient with 0.1% TFA; retention times observed were sunitinib ˜3.5 minutes and conjugates either ˜2.2 minutes for Compound 2a or ˜10.8 minutes for Compounds 3a or 4a. Release data for the t1/2 values were obtained from the slope of the linear fit to a plot of ln(A(conjugate)/A0(conjugate)) vs. time, according to the first order rate law.
# The half-lives observed for several sunitinib conjugates of the invention were determined in buffer and plasma according to the descriptions in “Method E” provided in the Experimental.
structure (smiles),measurement,setting,value
"CCN(CC)CCN(C(=O)OCC(O)CO)C(=O)c1c(C)[nH]c(/C=C2\C(=O)Nc3ccc(F)cc32)c1C (centres unmarked) [Compound 1e, (Z)-2,3-dihydroxypropyl 2-(diethylamino)ethyl(5-((5-fluoro-2-oxoindolin-3-ylidene)methyl)-2,4-dimethyl-1H-pyrrole-3-carbonyl)carbamate]",half-life,"100 mM phosphate buffer pH 7.5, 37° C., read-out: Release half-life, Phosphate pH 7.5",~3 min
same,half-life,"phosphate buffer pH 6.8, 37° C., read-out: Release half-life, Phosphate pH 6.8",~10 min
